What follows are molecules tested against T1, catalytic domain of human Bub1 (amino acids 704-1085) (Homo sapiens, UniProt O43683) (assay: Bub1 kinase assay (TR-FRET)). Settings: 10 μM ATP, avg, read-out: Bub1 avg (IC50 [mol/l]).
T1 construct: catalytic domain of human Bub1 (amino acids 704-1085); His6 (N); made in house; host or cells: insect cells (Hi5)
Type: biochemical
Procedure, shortened: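 Readout is the 665/620 nm TR-FRET ratio from anti-phosphoserine antibody, Eu-labelled anti-mouse IgG and streptavidin-XL665, scaled between no-enzyme and uninhibited controls. Reaction: 1 μM biotinylated peptide, 10 μM ATP, 60 min, 22 °C, after 15 min compound preincubation with His6-Bub1 (704-1085, insect-expressed, ~200 ng/ml).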

T1 sequence (O43683 704-1085): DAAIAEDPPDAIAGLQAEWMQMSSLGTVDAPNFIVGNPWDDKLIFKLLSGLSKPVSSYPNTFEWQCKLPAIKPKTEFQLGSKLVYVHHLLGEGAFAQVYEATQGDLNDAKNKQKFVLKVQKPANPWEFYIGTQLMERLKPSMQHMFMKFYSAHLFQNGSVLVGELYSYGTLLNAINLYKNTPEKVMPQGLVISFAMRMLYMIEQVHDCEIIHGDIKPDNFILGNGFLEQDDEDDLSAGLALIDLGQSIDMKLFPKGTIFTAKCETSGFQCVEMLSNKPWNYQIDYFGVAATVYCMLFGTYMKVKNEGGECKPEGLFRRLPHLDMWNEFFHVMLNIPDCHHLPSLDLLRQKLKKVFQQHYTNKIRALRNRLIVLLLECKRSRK

| IC50 | Structure (SMILES) |
| --- | --- |
| > 20 µM | Cc1nsc(Nc2cnc(C(F)(F)F)cn2)c1C(=O)Nc1ccc(CCC2CCN(CC(F)F)CC2)nc1 [Example 356, N-(6-{2-[1-(2,2-difluoroethyl)piperidin-4-yl]ethyl}pyridin-3-yl)-3-methyl-5-{[5-(trifluoromethyl)pyrazin-2-yl]amino}-1,2-thiazole-4-carboxamide] |
| ≥ 20 µM | Cc1nsc(Nc2cnc(C(F)(F)F)cn2)c1C(=O)Nc1ccc(OCC2CCN(CCF)CC2)nc1 [Example 344, N-(6-{[1-(2-fluoroethyl)piperidin-4-yl]methoxy}pyridin-3-yl)-3-methyl-5-{[5-(trifluoromethyl)pyrazin-2-yl]amino}-1,2-thiazole-4-carboxamide] |
| 19 µM | Cc1nsc(Nc2cnc(C(F)(F)F)cn2)c1C(=O)Nc1ccc(OCCCN(C)CCF)nc1 [Example 352, N-(6-{3-[(2-fluoroethyl)(methyl)amino]propoxy}pyridin-3-yl)-3-methyl-5-{[5-(trifluoromethyl)pyrazin-2-yl]amino}-1,2-thiazole-4-carboxamide] |
| > 20 µM | Cc1nsc(Nc2cnc(C(F)(F)F)cn2)c1C(=O)Nc1ccc(F)c(OC[C@H]2CCN(CCC(F)(F)F)C2)c1 [Example 399, N-(4-fluoro-3-{[(3S)-1-(3,3,3-trifluoropropyl)pyrrolidin-3-yl]methoxy}phenyl)-3-methyl-5-{[5-(trifluoromethyl)pyrazin-2-yl]amino}-1,2-thiazole-4-carboxamide] |
| ≥ 20 µM | Cc1nsc(Nc2cnc(C(F)(F)F)cn2)c1C(=O)Nc1ccc(OCC2CCN(CC(F)F)CC2)nc1 [Example 345, N-(6-{[1-(2,2-difluoroethyl)piperidin-4-yl]methoxy}pyridin-3-yl)-3-methyl-5-{[5-(trifluoromethyl)pyrazin-2-yl]amino}-1,2-thiazole-4-carboxamide] |
| ≥ 20 µM | Cc1nsc(Nc2cnc(C(F)(F)F)cn2)c1C(=O)Nc1ccc(F)c(OCC2CCCN(CC(F)F)C2)c1 (stereo not drawn) [Example 334, N-(3-{[1-(2,2-difluoroethyl)piperidin-3-yl]methoxy}-4-fluorophenyl)-3-methyl-5-{[5-(trifluoromethyl)pyrazin-2-yl]amino}-1,2-thiazole-4-carboxamide] |
| > 20 µM | CCN1CC[C@@H](Oc2ccc(NC(=O)c3c(C)nsc3Nc3cnc(C(F)(F)F)cn3)cn2)[C@H](F)C1 [Example 369, N-(6-{[(3R,4R)-1-ethyl-3-fluoropiperidin-4-yl]oxy}pyridin-3-yl)-3-methyl-5-{[5-(trifluoromethyl)pyrazin-2-yl]amino}-1,2-thiazole-4-carboxamide] |
| > 20 µM | CCCCN1CCC(COc2ccc(NC(=O)c3c(C)nsc3Nc3cnc(C(F)(F)F)cn3)cn2)C(F)(F)C1 (stereo not drawn) [Example 396, N-{6-[(1-butyl-3,3-difluoropiperidin-4-yl)methoxy]pyridin-3-yl}-3-methyl-5-{[5-(trifluoromethyl)pyrazin-2-yl]amino}-1,2-thiazole-4-carboxamide] |
| > 20 µM | Cc1nsc(Nc2cnc(C(F)(F)F)cn2)c1C(=O)Nc1ccc(OC[C@@H]2CCCN(CC(F)F)C2)nc1 [Example 375, N-(6-{[(3R)-1-(2,2-difluoroethyl)piperidin-3-yl]methoxy}pyridin-3-yl)-3-methyl-5-{[5-(trifluoromethyl)pyrazin-2-yl]amino}-1,2-thiazole-4-carboxamide] |
| > 20 µM | Cc1nsc(Nc2cnc(C(F)(F)F)cn2)c1C(=O)Nc1ccc(N2CCN(CC(F)(F)F)CC2)cn1 [Example 373, 3-methyl-N-{5-[4-(2,2,2-trifluoroethyl)piperazin-1-yl]pyridin-2-yl}-5-{[5-(trifluoromethyl)pyrazin-2-yl]amino}-1,2-thiazole-4-carboxamide] |
| ≥ 20 µM | Cc1nsc(Nc2cnc(C(F)(F)F)cn2)c1C(=O)Nc1ccc(OC2CCCN(C(CF)CF)C2)nc1 (stereo not drawn) [Example 333, N-(6-{[1-(1,3-difluoropropan-2-yl)piperidin-3-yl]oxy}pyridin-3-yl)-3-methyl-5-{[5-(trifluoromethyl)pyrazin-2-yl]amino}-1,2-thiazole-4-carboxamide] |
| > 20 µM | Cc1nsc(Nc2cnc(C(F)(F)F)cn2)c1C(=O)Nc1ccc(O[C@@H]2CCN(CCC(F)(F)F)C2)nc1 [Example 381, 3-methyl-5-{[5-(trifluoromethyl)pyrazin-2-yl]amino}-N-(6-{[(3R)-1-(3,3,3-trifluoropropyl)pyrrolidin-3-yl]oxy}pyridin-3-yl)-1,2-thiazole-4-carboxamide] |
| ≥ 20 µM | Cc1nsc(Nc2cnc(C(F)(F)F)cn2)c1C(=O)Nc1ccc(OCC2CCN(CC(F)(F)F)CC2)nc1 [Example 346, 3-methyl-N-(6-{[1-(2,2,2-trifluoroethyl)piperidin-4-yl]methoxy}pyridin-3-yl)-5-{[5-(trifluoromethyl)pyrazin-2-yl]amino}-1,2-thiazole-4-carboxamide] |
| ≥ 20 µM | Cc1nsc(Nc2cnc(C(F)(F)F)cn2)c1C(=O)Nc1ccc(OC2CCCN(CCC(F)(F)F)C2)nc1 (stereo not drawn) [Example 332, 3-methyl-5-{[5-(trifluoromethyl)pyrazin-2-yl]amino}-N-(6-{[1-(3,3,3-trifluoropropyl)piperidin-3-yl]oxy}pyridin-3-yl)-1,2-thiazole-4-carboxamide] |
| > 20 µM | Cc1nsc(Nc2cnc(C(F)(F)F)cn2)c1C(=O)Nc1ccc(O[C@@H]2CCN(CC(F)(F)F)C[C@H]2F)nc1 [Example 367, N-(6-{[(3R,4R)-3-fluoro-1-(2,2,2-trifluoroethyl)piperidin-4-yl]oxy}pyridin-3-yl)-3-methyl-5-{[5-(trifluoromethyl)pyrazin-2-yl]amino}-1,2-thiazole-4-carboxamide] |
| ≥ 20 µM | Cc1nsc(Nc2ccc(C#N)cn2)c1C(=O)Nc1ccc(OC2CCNCC2)nc1 [Example 28, 5-[(5-Cyanopyridin-2-yl)amino]-3-methyl-N-[6-(piperidin-4-yloxy)pyridin-3-yl]-1,2-thiazole-4-carboxannide] |
| > 20 µM | Cc1nsc(Nc2cnc(C(F)(F)F)cn2)c1C(=O)Nc1ccc(C2CCN(CC(F)(F)F)CC2)nc1 [Example 358, 3-methyl-N-{6-[1-(2,2,2-trifluoroethyl)piperidin-4-yl]pyridin-3-yl}-5-{[5-(trifluoromethyl)pyrazin-2-yl]amino}-1,2-thiazole-4-carboxamide] |
| > 20 µM | Cc1nsc(Nc2cnc(C(F)(F)F)cn2)c1C(=O)Nc1ccc(C2CCN(CC(F)F)CC2)nc1 [Example 357, N-{6-[1-(2,2-difluoroethyl)piperidin-4 yl]pyridin-3-yl}-3-methyl-5-{[5-(trifluoromethyl)pyrazin-2-yl]amino}-1,2-thiazole-4-carboxamide] |
| > 20 µM | CCCN1CC[C@@H](Oc2ccc(NC(=O)c3c(C)nsc3Nc3cnc(C(F)(F)F)cn3)cn2)[C@H](F)C1 [Example 371, N-(6-{[(3R,4R)-3-fluoro-1-propylpiperidin-4-yl]oxy}pyridin-3-yl)-3-methyl-5-{[5-(trifluoromethyl)pyrazin-2-yl]amino}-1,2-thiazole-4-carboxamide] |
| > 20 µM | CCCN1CC[C@H](Oc2ccc(NC(=O)c3c(C)nsc3Nc3cnc(C(F)(F)F)cn3)cn2)[C@@H](F)C1 [Example 370, N-(6-{[(3S,4S)-3-fluoro-1-propylpiperidin-4-yl]oxy}pyridin-3-yl)-3-methyl-5-{[5-(trifluoromethyl)pyrazin-2-yl]amino}-1,2-thiazole-4-carboxamide] |
| > 20 µM | Cc1nsc(Nc2cnc(C(F)(F)F)cn2)c1C(=O)Nc1ccc(O[C@@H]2CCN(CCC(F)(F)F)C[C@H]2F)nc1 [Example 368, N-(6-{[(3R,4R)-3-fluoro-1-(3,3,3-trifluoropropyl)piperidin-4-yl]oxy}pyridin-3-yl)-3-methyl-5-{[5-(trifluoromethyl)pyrazin-2-yl]amino}-1,2-thiazole-4-carboxamide] |
| > 20 µM | Cc1nsc(Nc2cnc(C(F)(F)F)cn2)c1C(=O)Nc1ccc(F)c(OC[C@H]2CCN(CC(F)(F)F)C2)c1 [Example 398, N-(4-fluoro-3-{[(3S)-1-(2,2,2-trifluoroethyl)pyrrolidin-3-yl]methoxy}phenyl)-3-methyl-5-{[5-(trifluoromethyl)pyrazin-2-yl]amino}-1,2-thiazole-4-carboxamide] |
| ≥ 20 µM | Cc1nsc(Nc2cnc3ccccc3n2)c1C(=O)Nc1ccc(OC2CCCNC2)nc1 (stereo not drawn) [Example 32, 3-Methyl-N-[6-(piperidin-3-yloxy)pyridin-3-yl]-5-(quinoxalin-2-ylamino)-1,2-thiazole-4-carboxannide] |
| ≥ 20 µM | Cc1nsc(Nc2cnc(C(F)(F)F)cn2)c1C(=O)Nc1ccc(OC2CCCN(CC(F)F)C2)nc1 (stereo not drawn) [Example 330, N-(6-{[1-(2,2-difluoroethyl)piperidin-3-yl]oxy}pyridin-3-yl)-3-methyl-5-{[5-(trifluoromethyl)pyrazin-2-yl]amino}-1,2-thiazole-4-carboxamide] |
| > 20 µM | Cc1nsc(Nc2cnc(C(F)(F)F)cn2)c1C(=O)Nc1ccc(N2CCN(CC(F)F)CC2)nc1 [Example 359, N-{6-[4-(2,2-difluoroethyl)piperazin-1-yl]pyridin-3-yl}-3-methyl-5-{[5-(trifluoromethyl)pyrazin-2-yl]amino}-1,2-thiazole-4-carboxamide] |
| > 20 µM | Cc1nsc(Nc2cnc(C(F)(F)F)cn2)c1C(=O)Nc1ccc(O[C@@H]2CCCN(CC(F)(F)F)C2)nc1 [Example 386, 3-methyl-N-(6-{[(3R)-1-(2,2,2-trifluoroethyl)piperidin-3-yl]oxy}pyridin-3-yl)-5-{[5-(trifluoromethyl)pyrazin-2-yl]amino}-1,2-thiazole-4-carboxamide] |
| ≥ 20 µM | Cc1nsc(Nc2ccc(C#N)cn2)c1C(=O)Nc1ccc(OC2CCN(CCF)CC2)nc1 [Example 29, 5-[(5-Cyanopyridin-2-yl)amino]-N-(6-{[1-(2-fluoroethyl)piperidin-4-yl]oxy}pyridin-3-yl)-3-methyl-1,2-thiazole-4-carboxamide] |
